Reference: PubChem BioAssay (NCI)
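How tested: cells in 96-well plates exposed to compound for 48 hours at five concentrations. Abbreviation: GI50, concentration required for 50% inhibition of growth. TGI denotes the concentration required for complete inhibition of growth.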

Experiments:
Test in all cases: inhibition of tumour cell growth, NCI panel, 48 h
UACC-62 melanoma = system: UACC-62 melanoma
U251 CNS = system: U251 CNS
HCC-2998 colon = system: HCC-2998 colon
HS 578T breast = system: HS 578T breast
UACC-257 melanoma = system: UACC-257 melanoma
CAKI-1 renal = system: CAKI-1 renal
CCRF-CEM leukemia = system: CCRF-CEM leukemia
HL-60(TB) leukemia = system: HL-60(TB) leukemia
BT-549 breast = system: BT-549 breast
786-0 renal = system: 786-0 renal
SK-MEL-28 melanoma = system: SK-MEL-28 melanoma
SK-MEL-2 melanoma = system: SK-MEL-2 melanoma
MOLT-4 leukemia = system: MOLT-4 leukemia
A549 NSCLC = system: A549 NSCLC
SN12C renal = system: SN12C renal
NCI-H522 lung = system: NCI-H522 lung
A498 renal = system: A498 renal
COLO 205 colon = system: COLO 205 colon
SF-268 CNS = system: SF-268 CNS
SNB-75 CNS = system: SNB-75 CNS
NCI-H460 lung = system: NCI-H460 lung
HCT-116 colon = system: HCT-116 colon
HT29 colon = system: HT29 colon
SF-539 CNS = system: SF-539 CNS
OVCAR-5 ovarian = system: OVCAR-5 ovarian
OVCAR-8 ovarian = system: OVCAR-8 ovarian
RPMI-8226 leukemia = system: RPMI-8226 leukemia
TK-10 renal = system: TK-10 renal
SK-MEL-5 melanoma = system: SK-MEL-5 melanoma
OVCAR-3 ovarian = system: OVCAR-3 ovarian
PC-3 prostate = system: PC-3 prostate
HOP-92 NSCLC = system: HOP-92 NSCLC
K-562 leukemia = system: K-562 leukemia
MDA-MB-435 = system: MDA-MB-435
RXF 393 renal = system: RXF 393 renal
HOP-62 NSCLC = system: HOP-62 NSCLC
SR leukemia = system: SR leukemia
MALME-3M melanoma = system: MALME-3M melanoma
M14 melanoma = system: M14 melanoma
NCI/ADR-RES ovarian = system: NCI/ADR-RES ovarian
LOX IMVI melanoma = system: LOX IMVI melanoma
SW-620 colon = system: SW-620 colon
UO-31 renal = system: UO-31 renal
DU-145 prostate = system: DU-145 prostate
SNB-19 CNS = system: SNB-19 CNS
SF-295 CNS = system: SF-295 CNS
IGROV1 ovarian = system: IGROV1 ovarian
HCT-15 colon = system: HCT-15 colon
EKVX NSCLC = system: EKVX NSCLC
KM12 colon = system: KM12 colon
NCI-H23 lung = system: NCI-H23 lung
OVCAR-4 ovarian = system: OVCAR-4 ovarian
MDA-MB-231 breast = system: MDA-MB-231 breast

Compound `O=C(Nc1ccc(F)cc1F)c1cc(F)ccc1O` has a GI50 (UACC-62 melanoma) of 1.38 µM, a TGI (UACC-62 melanoma) of 4.12 µM and a GI50 (U251 CNS) of 2.95 µM. The TGI (U251 CNS) was greater than 100 µM, the GI50 (HCC-2998 colon) was 3.12 µM and the TGI (HCC-2998 colon) was 13.1 µM. The GI50 (HS 578T breast) was 2.37 µM, the TGI (HS 578T breast) was 9.14 µM and the GI50 (UACC-257 melanoma) was 2.26 µM. The TGI (UACC-257 melanoma) was 7.32 µM, the GI50 (CAKI-1 renal) was 2.37 µM and the TGI (CAKI-1 renal) was 11.6 µM. It also gave a GI50 (CCRF-CEM leukemia) of 3.35 µM, a TGI (CCRF-CEM leukemia) greater than 100 µM and a GI50 (HL-60(TB) leukemia) of 2.33 µM. The TGI (HL-60(TB) leukemia) was 5.38 µM, the GI50 (BT-549 breast) was 2.43 µM and the TGI (BT-549 breast) was 6.75 µM. It also gave a GI50 (786-0 renal) of 3.19 µM, a TGI (786-0 renal) of 16.2 µM and a GI50 (SK-MEL-28 melanoma) of 2.77 µM. For the same compound, the TGI (SK-MEL-28 melanoma) was 13.2 µM, the GI50 (SK-MEL-2 melanoma) was 2.48 µM and the TGI (SK-MEL-2 melanoma) was 6.54 µM. The GI50 (MOLT-4 leukemia) was 2.63 µM, the TGI (MOLT-4 leukemia) was 6.88 µM and the GI50 (A549 NSCLC) was 3.04 µM. The TGI (A549 NSCLC) was greater than 100 µM, the GI50 (SN12C renal) was 2.2 µM and the TGI (SN12C renal) was 8.02 µM. The GI50 (NCI-H522 lung) was 2.59 µM, the TGI (NCI-H522 lung) was greater than 100 µM and the GI50 (A498 renal) was 1.84 µM. The TGI (A498 renal) was 5.53 µM, the GI50 (COLO 205 colon) was 2.08 µM and the TGI (COLO 205 colon) was 5.06 µM. For the same compound, the GI50 (SF-268 CNS) was 3.34 µM, the TGI (SF-268 CNS) was 67.1 µM and the GI50 (SNB-75 CNS) was 3.19 µM. The TGI (SNB-75 CNS) was 30.7 µM, the GI50 (NCI-H460 lung) was 2.94 µM and the TGI (NCI-H460 lung) was greater than 100 µM. For the same compound, the GI50 (HCT-116 colon) was 2.91 µM, the TGI (HCT-116 colon) was 11.1 µM and the GI50 (HT29 colon) was 3.37 µM. The TGI (HT29 colon) was greater than 100 µM, the GI50 (SF-539 CNS) was 2.85 µM and the TGI (SF-539 CNS) was 12.3 µM. It also gave a GI50 (OVCAR-5 ovarian) of 3.18 µM, a TGI (OVCAR-5 ovarian) greater than 100 µM and a GI50 (OVCAR-8 ovarian) of 3.44 µM. The TGI (OVCAR-8 ovarian) was greater than 100 µM, the GI50 (RPMI-8226 leukemia) was 1.4 µM and the TGI (RPMI-8226 leukemia) was 5.01 µM. The GI50 (TK-10 renal) was 4.48 µM, the TGI (TK-10 renal) was greater than 100 µM and the GI50 (SK-MEL-5 melanoma) was 1.27 µM. The TGI (SK-MEL-5 melanoma) was 2.81 µM, the GI50 (OVCAR-3 ovarian) was 2.77 µM and the TGI (OVCAR-3 ovarian) was 21.9 µM. The GI50 (PC-3 prostate) was 2.61 µM, the TGI (PC-3 prostate) was 9.53 µM and the GI50 (HOP-92 NSCLC) was 0.569 µM. The TGI (HOP-92 NSCLC) was 3.59 µM, the GI50 (K-562 leukemia) was 2.41 µM and the TGI (K-562 leukemia) was greater than 100 µM. The GI50 (MDA-MB-435) was 2.86 µM, the TGI (MDA-MB-435) was 34.2 µM and the GI50 (RXF 393 renal) was 2.49 µM. It also gave a TGI (RXF 393 renal) of 8.33 µM, a GI50 (HOP-62 NSCLC) of 2.9 µM and a TGI (HOP-62 NSCLC) of 47.2 µM. The GI50 (SR leukemia) was 3.95 µM, the TGI (SR leukemia) was greater than 100 µM and the GI50 (MALME-3M melanoma) was 2.04 µM. It also gave a TGI (MALME-3M melanoma) of 7.66 µM, a GI50 (M14 melanoma) of 2.82 µM and a TGI (M14 melanoma) of 13.2 µM. The GI50 (NCI/ADR-RES ovarian) was 2.81 µM, the TGI (NCI/ADR-RES ovarian) was 9.78 µM and the GI50 (LOX IMVI melanoma) was 3.39 µM. The TGI (LOX IMVI melanoma) was 12.1 µM, the GI50 (SW-620 colon) was 3.15 µM and the TGI (SW-620 colon) was greater than 100 µM. For the same compound, the GI50 (UO-31 renal) was 1.96 µM, the TGI (UO-31 renal) was 7.16 µM and the GI50 (DU-145 prostate) was 3.62 µM. It also gave a TGI (DU-145 prostate) greater than 100 µM, a GI50 (SNB-19 CNS) of 3.17 µM and a TGI (SNB-19 CNS) greater than 100 µM. The GI50 (SF-295 CNS) was 1.99 µM, the TGI (SF-295 CNS) was 4.36 µM and the GI50 (IGROV1 ovarian) was 2.58 µM. It also gave a TGI (IGROV1 ovarian) greater than 100 µM, a GI50 (HCT-15 colon) of 2.92 µM and a TGI (HCT-15 colon) greater than 100 µM. For the same compound, the GI50 (EKVX NSCLC) was 2.23 µM, the TGI (EKVX NSCLC) was 10.5 µM and the GI50 (KM12 colon) was 2.76 µM. For the same compound, the TGI (KM12 colon) was 10.6 µM, the GI50 (NCI-H23 lung) was 2.07 µM and the TGI (NCI-H23 lung) was 6.62 µM. For the same compound, the GI50 (OVCAR-4 ovarian) was 2.59 µM, the TGI (OVCAR-4 ovarian) was greater than 100 µM and the GI50 (MDA-MB-231 breast) was 1.9 µM. It also gave a TGI (MDA-MB-231 breast) of 4.9 µM.
